Experimental data from US20080241258A1, “TREATMENT OF DISEASES WITH NANOPARTICLES HAVING A SIZE-DEPENDENT CYTOTOXICITY” (priority 2007, published 2008).

Columns and labels:
[1] = Stability (aggregation) of Au compounds in serum containing cell culture media, scored from microscopic pictures; format: physicochemical; parameters: key: Material aggregation was scored positive (+); negative (−); conditions: for Aggregation at 12 hours: sign after slash; for Aggregation at 5 minutes: sign in front of slash
Text: Next applicant tested the stability of the materials in the serum containing cell culture media formulated for proper growth of the cell lines used in this study. Applicant reasoned that the medium composition might affect particle aggregation and that aggregation of materials would greatly influence the endocytic pathway and ultimately the cellular trajectories of materials precluding or favoring intracellular targets. Macroscopic and microscopic aspects of medium-material combinations in the absence of any cells were studied by applicant.
Materials were grouped according to their stability in specific media and over time.
Material stability was assayed in DMEM high glucose (H). DMEM low glucose (L) and RPMI 1640 including 10% fetal calf serum. Material aggregation was scored positive (+) or negative (−) from microscopic pictures taken after 5 minutes (sign in from of slash) and 12 hours incubation (sign after slash).

[2] = test system: HeLa cervix carcinoma epithelial cells; experiment: MTT cytotoxicity assay, logarithmic growth phase; format: cell-based; conditions: FIG. 3A, at ˜10 μM ligand
Text: Applicant quantified the toxicity of Au compounds in four cell lines determining the inhibitory concentrations that effected 50% growth inhibition (IC50) in MTT assays. Applicant reasoned that actively growing and dividing cells during logarithmic growth should be more vulnerable to toxic insults than cells in near or at the stationary phase of cell culture. Thus, applicant determined growth curves for all cell lines to estimate the logarithmic and stationary growth phases in relation to the number of cells seeded into each well of a 96-well cell culture plate. […] This graph serves as a reference to estimate whether cells were in the logarithmic or in the stationary phase of cell culture at the start of any given experiment. […] The bottom panel depicts the protocol of cytotoxicity testing starting during the logarithmic (left bottom panel) or the stationary growth phase (right bottom panel).
Having established growth characteristics for the reporter cell lines applicant treated the cells with Au compounds for up to 48 hours to observe the full effect of toxicity. […]
FIG. 3 A): HeLa cells were plated at 2000 cells/well and grown for 3 days into the logarithmic growth phase. […] Shown are the logarithmic curve fits of tabulated MTT readings. […] All concentrations relate to the amount of gold [Au] detected by AAS in the authentic samples after performing the cytotoxicity test. […]

[3] = test system: HeLa, SK-MeI-28, L929 and J774A1 cells; experiment: MTT cytotoxicity assay in four cell lines
Text: Applicant tested the cytotoxicity of these particles in four cell lines representing major functional cell types with barrier and phagocyte function.
Applicant added Au compounds to HeLa cervix carcinoma epithelial cells (HeLa), SK-MeI-28 melanoma cells (SK-MeI-28), L929 mouse fibroblasts (L929) and J774A.1 mouse monocytic/macrophage cells (J774A1) and first studied their response by light and electron microscopy.
Applicant quantified the toxicity of Au compounds in four cell lines determining the inhibitory concentrations that effected 50% growth inhibition (IC50) in MTT assays. […] Thus, applicant determined growth curves for all cell lines to estimate the logarithmic and stationary growth phases in relation to the number of cells seeded into each well of a 96-well cell culture plate.
Having established growth characteristics for the reporter cell lines applicant treated the cells with Au compounds for up to 48 hours to observe the full effect of toxicity. […] Applicant performed toxicity tests both during the logarithmic and the stationary phase of cell growth following the time course depicted in FIG. 2, lower panels.
FIG. 3 A): HeLa cells were plated at 2000 cells/well and grown for 3 days into the logarithmic growth phase. […] All concentrations relate to the amount of gold [Au] detected by AAS in the authentic samples after performing the cytotoxicity test. […]

[4] = DMEM high glucose (H) including 10% fetal calf serum
[5] = DMEM low glucose (L) including 10% fetal calf serum
[6] = RPMI 1640 including 10% fetal calf serum

| Compound | Aggregation at 12 hours [1, 4] | Aggregation at 5 minutes [1, 4] | Aggregation at 12 hours [1, 5] | Aggregation at 5 minutes [1, 5] | Aggregation at 12 hours [1, 6] | Aggregation at 5 minutes [1, 6] | ligand toxicity [2] | non-toxic at up to x fold higher concentration (than 1.4 nm nanoclusters) ([3]; four cell lines) | IC50 ([3]; read-out: cytotoxicity: non-toxic at concentrations up to, all cells tested) |
| --- | --- | --- | --- | --- | --- | --- | --- | --- | --- |
| [Au+3].[Cl-].[Cl-].[Cl-].[Cl-].[H+] [HAuCl4] | −/− | −/− | −/− | −/− | −/− | −/− |  |  |  |
| [Cl][Au-]([Cl])([Cl])[Cl].[Na+] [NaAuCl4] | −/− | −/− | −/− | −/− | −/− | −/− |  |  |  |
| O=S(=O)([O-])c1cccc(P(c2cccc(S(=O)(=O)[O-])c2)c2cccc(S(=O)(=O)[O-])c2)c1.[Na+].[Na+].[Na+] [TPPTS, triphenylphosphine trisulfonate] | −/− | −/− | −/− | −/− | −/− | −/− | non-toxic |  |  |
| gold thiomalate [Tauredon] | +/+ | +/+ | +/+ | +/+ | + | − |  | up to 1000 fold | > 10 mM |
| O=S(=O)([O-])c1cccc(P(c2ccccc2)c2ccccc2)c1.[Na+] [TPPMS, triphenylphosphine monosulfonate] | −/− | −/− | −/− | −/− | −/− | −/− | non-toxic |  |  |
